{"source": "patent US20040063710A1", "about": "“Ophthalmological preparations” (priority 2000, published 2004)", "key": {"retinal ganglion cells": {"system": "retinal ganglion cells", "assay": "Inhibitory effect against retinal ganglion cell death caused by glutamate", "type": "cell-based, Wister rat", "settings": "10^-7 M, 10^-6 M, 10^-5 M MCI-154; 250 μM glutamate, 48 hours culture; versus control group", "protocol": "In accordance with the method of Otori et al. (Investigative Ophthalmology & Visual Science, Vol. 39, No. 6, 1998), retinal ganglion cells were isolated from a 6 day-old Wister rat, and approximately 300 cells were plated on each cover glass having a diameter of 12 mm with poly-L-lysine and laminin coatings, that was inserted in each well of a 24-well culture plate, and then were cultured for 24 hours. The cells were divided into an untreated group, a control group, and medicament-treated group, each consisting of 2 wells. To the untreated and control groups, a basic culture medium was added, and to the medicament-treated groups, MCI-154 was added at various concentrations. After 4 hours of culture, 250 μM of glutamate was added to all of the groups except for the untreated group, followed by further culture for 48 hours. After the culture for 48 hours, cells were stained with 1 μM calcein acetoxymethyl ester, and the number of cells with neurites growing more than twice as long as the cell body diameter was counted as viable cells under a fluorescence microscope. Independent three experiments were performed in duplicate.\nMedicament-treated group: 10^−7 M, 10^−6 M, and 10^−5 M MCI-154\nBasic culture medium: Neurobasal (Gibco, Grand Island, N.Y.) including 1 mM glutamine, 10 μg/ml gentamycin, and 40 ng/ml […], CNTF, and b-FGF. […]"}, "[1]": {"system": "retinal degeneration caused by transient retinal ischemia", "assay": "Inhibitory effect against retinal degeneration induced by transient retinal ischemia", "type": "in vivo, Wister male rats", "settings": "0.1 mg/kg into caudal vein just before and immediately after ocular hypertension treatment (130 mmHg, 50 minutes); 7 days after; versus control group", "protocol": "Wister male rats (body weight of about 200 g) was used. Each animal was subjected to sufficient warming treatment by using a thermal plate under anesthesia, and the head was fixed by using a stereotaxic apparatus. In order to induce transient retinal ischemia, IOP was maintained at 130 mmHg for 50 minutes by injecting intraocular irrigating solution into the anterior chamber via the cornea using an infusion tube and 30 G injection needle which were connected to a bottle held at 174 cm above the eyes (ocular hypertension treatment) according to the method of Akaike (Folia Pharmacologica Japonica, 111, pp.97-104(1998)). The ocular hypertension treatment was performed only on the right eye, and the left eye was left untreated. Just before and immediately after the ocular hypertension treatment, a physiological saline or a dose of 0.1 mg/kg of MCI0154 was injected to the caudal vein. Seven days after the ocular hypertension treatment, the animal was sacrificed under anesthesia, and eyeballs were isolated and a light microscopic specimens of horizontal sections of retina were prepared. Under a microscope, thickness of the retina (from inner plexiform layer to outer plexiform layer) was measured using a micrometer. […] 7 days after the ocular hypertension treatment. Data represent means±SEM (standard errors), and the number of rats for each group was 10. […]"}, "[2]": {"system": "left atrium of guinea pig", "assay": "Isolated left atrium of guinea pig", "settings": "Dose 3 × 10^-5 g/ml", "protocol": "A left atrium was isolated from a male guinea pig with 200-300 g of body weight soon after striking on the back of its head. The mitral orifice was fixed to the bottom of an organ bath filled with 30 ml of Krebs-Henseleit solution maintained at 35° C. A gas mixture comprising 95% O2 and 5% CO2 was passed through the Krebs-Henseleit solution in the organ bath. Isometric tension was measured by connecting a left auricle of heart and a transducer by a yarn. A resting tension of 0.5 g was given to the atrium, which was then electrically driven with square pulses with duration of 1 msec and voltage of 1.5 times as much as threshold in the rate 2 Hz via dipolar platinum electrodes. After stabilizing the atrium for 30 minutes from its preparation, the compound dissolved in a solvent was added to the organ bath to measure its effect."}}}
{"compound": "O=C1CCC(c2ccc(Nc3ccncc3)cc2)=NN1", "note": "[MCI-154, 6-[4-(4-pyridylamino)phenyl]-4,5-dihydro-3 (2H)pyridazinone]", "values": [{"measurement": "inhibition of retinal ganglion cell death induced by glutamate (viable cells relative to untreated group)", "setting": "retinal ganglion cells", "result": "significantly inhibits"}, {"measurement": "inhibition of retinal degeneration caused by transient retinal ischemia (retinal thickness ratio)", "setting": "[1]", "result": "significantly inhibits"}, {"measurement": "Contraction of left atrium of guinea pig, Increase (%)", "setting": "[2]", "result": 188, "unit": "%"}]}
